Source: patent US20250339432A1, “QUINAZOLINONE COMPOUND AS BRAF INHIBITOR FOR THE TREATMENT OF ADVANCED SOLID CANCER OR METASTASES” (Hoffmann-La Roche Inc., priority 2022, published 2025)

How the values were obtained:
[1] = Food Cohort: food effect on PK (high-fat meal vs fasted); type: in vivo, human; conditions: fed cohort vs fasted, preliminary PK data, FIG. 3
Excerpt: Part 1—Food Cohort: The food effect (FE) on the PK of Compound Ia will be evaluated in Part 1a (Compound Ia monotherapy) or in Part 1b (Compound Ia in combination with cobimetinib) at the MTD and/or RP2D, or at dose levels close to the RP2D and/or MTD of Compound Ia with or without cobimetinib. For exploring the effect of food intake, participants will receive Compound Ia after a high-fat meal (Group 1) or following a 10-hour fast (Group 2) using a parallel design. For this pilot FE evaluation, a minimum of 6 evaluable participants will be enrolled.
Meals and Dietary Restrictions: Generally, for participants receiving Compound Ia, no dietary restrictions are foreseen. A preliminary assessment of the FE (food effect) on the PK of Compound Ia will be done in Part 1 to inform about potential dietary requirements for the dose expansion (Part 2) in case a FE is observed. For participants receiving cobimetinib, the use of grapefruit juice, a potent CYP3A4 enzyme inhibitor, is prohibited during the study and for 30 days after the last dose of study treatment. For Participants in Food Cohort in the Food Cohort of Part 1, the effect of food on the systemic exposure of Compound Ia will be explored close to the MTD and/or at RP2D or relevant dose levels for a minimum of 6 participants. […] The food intake during the high-fat meal plus calories and fat content will be recorded.

[2] = Solubility / biopharmaceutics classification; type: physicochemical; conditions: for solubility across the physiological pH range: behaves like a weak acid
clinical = conditions: human, in vivo, po, 25 mg
Experimental: (§1) In a Pilot PK Cohort prior to the dose-escalation in Part 1a (monotherapy), the PK of Compound Ia was explored after a single, oral dose of 25 mg in 2 participants to address the PK uncertainty.
(§2) Blood samples to evaluate concentrations of Compound Ia and cobimetinib (and its metabolite[s], if appropriate) will be collected. The date and time of each sample collection will be recorded. Compound Ia and cobimetinib levels will be analyzed by using validated LC-MS/MS assays. […] Dedicated PK samples will be collected for the Pilot PK Cohort and the Food Cohort at pre-defined timepoints.
(§3) PK parameters for Compound Ia administered alone and in combination with cobimetinib will be derived from the plasma concentrations and will be listed and summarized using descriptive statistics (such as mean, standard deviation, coefficient of variation, median, minimum, and maximum). The PK parameters will include but are not limited to area under the curve (AUC), maximum concentration (Cmax), time of maximum concentration observed (Tmax) and, apparent oral clearance (CL/F), volume of distribution at steady-state (Vss/F), and terminal half-life (t½). Estimation of PK parameters may be performed using standard non-compartmental methods and/or population PK modeling. If data allow, other methods may be used for data analysis, e.g., PK and PD data may be used to develop a population PK/PD model. Individual and mean plasma Compound Ia concentration versus time data will be tabulated and plotted by dose levels. […] The linearity of PK (AUC and Cmax) will be investigated. To assess the FE on the PK of Compound Ia, PK parameters (such as AUC, Cmax, Tmax and t1/2) will be analyzed following oral administration of Compound Ia while either fed (high-fat meal) or fasted for a minimum of 6 participants. Estimation of PK parameters may be performed using standard non-compartmental methods and/or population PK modeling. Furthermore, Compound Ia CSF concentrations (where applicable) might be presented by listings and descriptive summary statistics (such as mean, standard deviation, coefficient of variation, median, minimum, and maximum). If data allow, other methods may be used for data analysis, e.g., PK and PD data may be used to develop a population PK/PD model.

[3] = in vivo
Experimental: as §1, §2, §3

[4] = Non-clinical safety benchmark dose in rats
[5] = human, in vivo
Excerpt: Participants in the Pilot PK Cohort were enrolled and treated in a staggered manner (at least 3 days between the first and second participant).
The dosing regimen will then change to a twice-daily (BID) or three-times-daily (TID) administration, depending on new emerging PK data.
The number of patients with leptomeningeal involvement of their tumours is capped at 33% in each cohort. To avoid exposing participants to undue risk of toxicity, the maximum allowable dose increment recommended by the mCRM EWOC (modified continual reassessment method escalation with overdose control) design will be 100% (i.e., a 2-fold increase). […] The mCRM-EWOC will be adapted to the new dosing regimen.
Safety assessments will consist of monitoring and recording AEs, including serious AEs (SAEs) and non-SAEs of special interest (NSAESI); measurement of protocol-specified safety laboratory assessments; measurement of protocol-specified vital signs, ECGs; and other protocol-specified tests that are deemed critical to the safety evaluation of the study.

SMILES: Cn1cnc2ccc(Oc3c(F)ccc(NS(=O)(=O)N4CC[C@@H](F)C4)c3C#N)cc2c1=O [Compound Ia, (3R)—N-[2-cyano-4-fluoro-3-(3-methyl-4-oxo-quinazolin-6-yl)oxy-phenyl]-3-fluoro-pyrrolidine-1-sulfonamide]
- effect of food on AUCINF (AUC0-∞) [1]: did not significantly alter
- effect of food on Cmax [1]: lower Cmax
- biopharmaceutics classification system class [2]: class 2
- solubility [2]: low and pH dependent solubility
- solubility across the physiological pH range [2]: purely soluble at low pH with increasing solubility at neutral and alkaline pH
- solubility across the physiological pH range ([2]; listed as compound of formula (I)): poorly soluble at low pH with increasing solubility at neutral and alkaline pH
- half-life (clinical): 2 to 4 h
- safety margin based on unbound AUC0-∞ to the safety benchmark dose of 200 mg/kg/day in rat [3]: 22 fold
- safety margin based on unbound Cmax to the safety benchmark dose of 200 mg/kg/day in rat [3]: 4 fold
- safety margin based on preliminary unbound AUC0-∞ to the safety benchmark dose of 200 mg/kg/day in rats ([3]; rat): 174 fold
- safety margin based on preliminary unbound Cmax to the safety benchmark dose of 200 mg/kg/day in rats ([3]; rat): 32 fold
- NOAEL ([4]; rat, in vivo): 200 mg/kg/day
- safety benchmark dose (toxic dose in 10% of animals) ([4]; rats): 200 mg/kg/day
- drug related Grade 3 adverse events [5]: less than 25%
